Test results: patent US20150119372A1, “APPLICATION OF 18-METHYL-15SS,16SS-METHYLENE-19-NOR-20-SPIROX-4-EN-3-ONE SYSTEMS IN THE TREATMENT OF MENORRHAGIA, AS WELL AS INTRAUTERINE SYSTEMS CONTAINING 18-METHYL-15SS,16SS-METHYLENE-19-NOR-20-SPIROX-4-EN-3-ONE FOR TREATING UTERINE BLEEDING DISORDERS” (BAYER PHARMA AKTIENGESELLSCHAFT, priority 2012, published 2015)

Assays:
[1] = Mirena use; cited from earlier work
uterus = experiment: Uterine horn weight gain after implantation of progestin-containing IUS (rod) in ovary-resected rats; assay type: in vivo, rat; conditions: IUS (rod) in right uterine horn, FIG. 1/4
Protocol: (§1) The local uterine action of the progestin compared to systemic side effects (dissociation) was investigated on the basis of studies using rats. The uterus of ovary-resected rats responds to implantation of progestin-containing IUS (rods) with decidualization and weight gain. The local progestin effects were also determined on the basis of changes in gene expression.
(§2) Ovary-resected female rats were treated with estradiol (E2) for three days (0.2 μg/day/animal, subcutaneous dosing). On day 4, an IUS (rod) was implanted into the right uterine horn of each animal. The left uterine horn remained untreated for internal comparison. Administration of E2 was continued with a daily dose of 0.1 μg/animal to ensure responsiveness of the uterus (maintaining progesterone-receptor expression) to progestins. Blood was taken for LH level measurements on days 4, 10 and 17.

luteinizing hormone (LH) = experiment: Serum LH level in ovary-resected rats carrying IUS (rod), as a sign of systemic effect; assay type: in vivo, rat; conditions: FIG. 2/4
Protocol: Serum levels of luteinizing hormone (LH) are used for detecting systemic effects of the locally administered progestin. Basal serum-LH levels of ovary-resected rats are elevated compared to the LH levels of intact control animals. Undesired systemic efficacy of the uterine-administered progestin can be detected by a decrease in the LH level.
as §2

IGFBP-1 = experiment: Gene expression analysis of marker genes in uterine tissue of rats carrying IUS (rods); assay type: in vivo; conditions: rat uterus, FIG. 3/4
Protocol: as §1
as §2, with “17. […]” for “17.”
Gene expression analysis was carried out with from 50 ng to 200 ng of cDNA per reaction on an SDS7900HT Real.time PCR system (Applied Biosystems, Carlsbad, USA) using TaqMan probes (Applied Biosystems; IGFBP-1 Rn00565713_m1, Cyp26a1 Rn00590308_m1, PPIA Rn00690933_m1) and the Fast Blue qPCR MasterMix Plus (Eurogentec, Liège, Belgium; #RT-QP2X-03+FB). For relative quantification, cyclophilin A (PPIA) was used as an endogenous control. Relative expression levels were calculated according to the comparative delta delta CT method.

[2] = In-vitro metabolic studies (liver); assay type: in vitro ADME; conditions: all in-vitro metabolic studies (liver)
[3] = In vivo break-down in animal species; conditions: all animal species studied in vivo
[4] = In vitro (liver) break-down for humans; assay type: in vitro ADME; conditions: human liver in vitro
Protocol: The rapid in-vitro breakdown in the liver may also indicate rapid in-vivo breakdown, resulting in a very low systemic exposition of 18-methyl-15β,16β-methylene-19-nor-20-spirox-4-en-3-one and 18-Methyl-6α,7α,15β,16β-dimethylene-19-nor-20-spirox-4-en-3-one after administration through an IUS being calculated. The expected substance levels (Css=concentration at steady state) are calculated from the rate of release from the IUS divided by the clearance. Using a dose of 20 μg per day and woman, which corresponds to that of Mirena, gives a calculated systemic exposition (load) for 18-methyl-15β,16β-methylene-19-nor-20-spirox-4-en-3-one and 18-methyl-6α,7α,15β,16β-dimethylene-19-nor-20-spirox-4-en-3-one, which is over 30 times lower in comparison with Mirena®.

human androgen receptor = target: T1, human androgen receptor (Homo sapiens, UniProt P10275); experiment: hAR transactivation in PC3 cells stably transfected with hAR and MTV-luc reporter gene; assay type: cell-based; conditions: hAR, MTV-luc reporter
T1 construct: expressed in transfected cells; host or cells: PC3 (human prostate carcinoma) cells, stably transfected with hAR and the MTV-luc reporter
T1 sequence (P10275 1-920): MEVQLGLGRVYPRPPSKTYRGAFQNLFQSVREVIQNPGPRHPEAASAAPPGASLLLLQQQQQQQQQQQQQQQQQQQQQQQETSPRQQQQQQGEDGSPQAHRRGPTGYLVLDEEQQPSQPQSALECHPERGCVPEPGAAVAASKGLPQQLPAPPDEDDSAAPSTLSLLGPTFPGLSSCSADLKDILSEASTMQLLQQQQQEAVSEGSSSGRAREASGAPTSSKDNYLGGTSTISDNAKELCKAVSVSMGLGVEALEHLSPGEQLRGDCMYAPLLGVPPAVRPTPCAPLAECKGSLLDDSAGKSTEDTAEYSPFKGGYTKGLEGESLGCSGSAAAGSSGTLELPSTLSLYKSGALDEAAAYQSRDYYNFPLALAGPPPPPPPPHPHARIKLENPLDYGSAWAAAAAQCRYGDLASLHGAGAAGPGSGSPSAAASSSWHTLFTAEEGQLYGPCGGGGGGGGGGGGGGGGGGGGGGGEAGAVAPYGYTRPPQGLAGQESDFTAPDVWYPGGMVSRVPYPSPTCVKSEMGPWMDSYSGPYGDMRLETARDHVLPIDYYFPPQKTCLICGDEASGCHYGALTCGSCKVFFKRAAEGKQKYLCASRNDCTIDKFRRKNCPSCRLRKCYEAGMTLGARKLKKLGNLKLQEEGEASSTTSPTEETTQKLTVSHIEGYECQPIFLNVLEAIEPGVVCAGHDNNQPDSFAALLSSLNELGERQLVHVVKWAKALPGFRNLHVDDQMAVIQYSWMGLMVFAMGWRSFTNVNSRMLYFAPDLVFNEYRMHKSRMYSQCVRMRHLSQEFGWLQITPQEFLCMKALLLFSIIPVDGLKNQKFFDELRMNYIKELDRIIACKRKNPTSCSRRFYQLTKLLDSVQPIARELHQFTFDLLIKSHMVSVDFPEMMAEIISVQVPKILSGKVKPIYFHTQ
Protocol: For this, different concentrations of the test substances were to cells with stable expression of the human androgen receptor, and activation of the androgen receptor can be detected via a reporter gene.
For transactivation studies, PC3 (human prostate carcinoma) cells which have been stably transfected with hAR and the MTV-luc reporter gene were used. […] The cells were cultured at 37° C. and 5% CO2. The test medium corresponded to the culture medium, except that 10% FCS was replaced with 5% activated carbon-treated FCS (CCS). Cells were seeded in wells of a 96 well plate (“CulturPlate” from Packard #6005180) with 2×10^4 cells/well/200 μl of test medium. The cells were incubated with different concentrations of the test substances, and 80 μl of substrate were measured using the “steadylite HTS Reporter Gene Assay System” from Perkin Elmer.

[5] = dose range tested: compound A 0.6-10 μg per animal and day, compound B 1-45 μg/animal and day

Q: With `C#C[C@]1(O)CC[C@H]2[C@@H]3CCC4=CC(=O)CC[C@@H]4[C@H]3CC[C@@]21CC` [levonorgestrel] as the molecule, how does the “average plasma levels of active ingredient” value [1] read?
A: The value was “around 206 pg/ml”.

Q: Which “local efficacy by way of weight gain in the IUS-carrying uterine horn” value (uterus) does the source give for `CC[C@]12CCC3C4CCC(=O)C=C4CCC3C1[C@@H]1C[C@@H]1[C@@]21CCCO1` (stereo partly drawn) [compound A, 18-methyl-15β,16β-methylene-19-nor-20-spirox-4-en-3-one] here?
A: Its value is “dose-dependent local efficacy by way of weight gain”.

Q: What about the “LH decrease (systemic side effect)” value (luteinizing hormone (LH); 10 μg/animal and day dose) of the same molecule?
A: The value was “exception”.

Q: And the “LH decrease (systemic side effect)” value (luteinizing hormone (LH); [5])?
A: Its value is “no LH decrease”.

Q: And the “rate of release from the IUS at which IGFBP-1 gene expression is induced, lower than with levonorgestrel” value (IGFBP-1)?
A: The value was “approx. 7 ×”.

Q: What about the “break-down rate in in-vitro metabolic studies (liver)” value [2] of the same molecule?
A: Its value is “very fast break-down rate”.

Q: And the “break-down rate in vivo” value [3]?
A: Its value is “very fast break-down rate”.

Q: What about the “break-down rate in vitro (liver) for humans” value [4] of the same molecule?
A: The value was “Very rapid break-down rates”.

Q: Which results are given for `CC[C@]12CCC3C4CCC(=O)C=C4C4CC4C3C1[C@@H]1C[C@@H]1[C@@]21CCCO1` (stereo partly drawn) [compound B, 18-methyl-6α,7α,15β,16β-dimethylene-19-nor-20-spirox-4-en-3-one]?
A: local efficacy by way of weight gain in the IUS-carrying uterine horn (uterus): dose-dependent local efficacy by way of weight gain; LH decrease (systemic side effect) (luteinizing hormone (LH); [5]): no LH decrease; EC50 (human androgen receptor): 56 nM; break-down rate in in-vitro metabolic studies (liver) [2]: very fast break-down rate; break-down rate in vivo [3]: very fast break-down rate; break-down rate in vitro (liver) for humans [4]: Very rapid break-down rates
